A short description of experiment [1]: Inhibition of 5-FAM-BH3 peptide binding to N-terminal His8-tagged human MCL-1 (209 to 327 residues)/mouse MCL-1 (152 to 189 residues) expressed in Escherichia coli BL21 (DE3) by fluorescence polarization assay. (In general: Fluorescence polarisation rises when a labelled molecule tumbles more slowly, as on binding a larger partner.)
Experiment [2] has as its system PC-3. In words: Antiproliferative activity against human PC-3 cells incubated for 72 hrs by MTT assay. In kind it is functional, cell-based. To be noted: PC-3, 72 h. For orientation: Tetrazolium assays rely on reduction of a dye to a coloured formazan, in cell work by metabolically active cells.
The test system of experiment [3] is HepG2. Briefly: Antiproliferative activity against human HepG2 cells incubated for 72 hrs by MTT assay. In kind it is functional, cell-based. Conditions: HepG2, 72 h.
The test system of experiment [4] is NCI-H1299. Briefly: Antiproliferative activity against human NCI-H1299 cells incubated for 72 hrs by MTT assay. The format is functional, cell-based. To be noted: NCI-H1299, 72 h.
Experiment [5] has as its system MOLT-4. In words: Antiproliferative activity against human MOLT-4 cells incubated for 72 hrs by MTT assay. The format is functional, cell-based. Conditions: MOLT-4, 72 h.
For experiment [6], the system named is RPMI-8226. In words: Antiproliferative activity against human RPMI-8226 cells incubated for 72 hrs by MTT assay. Conditions: RPMI-8226, 72 h. In kind it is functional, cell-based.
Experiment [7] deals with Bcl-2-like protein 1 (Homo sapiens) (UniProt Q07817). In words: Inhibition of 5-FAM-BH3 peptide binding to human N-terminal GST-tagged BCL-XL (1 to 212 residues) expressed in Escherichia coli BL21 (DE3) at 100 uM by fluorescence polarization assay relative to control.
Experiment [8] can be described thus: Inhibition of 5-FAM-BH3 peptide binding to human N-terminal GST-tagged BCL-2 (1 to 34 residues)/BCL-XL (29 to 44 residues)/BCL-2 isoform 2 (92 to 207 residues) expressed in Escherichia coli BL21 (DE3) by fluorescence polarization assay.
Experiment [9] deals with Jurkat. Briefly: Antiproliferative activity against human Jurkat cells incubated for 72 hrs by MTT assay. In kind it is functional, cell-based.
Experiment [10] can be described thus: Antiproliferative activity against human KM3 cells incubated for 72 hrs by MTT assay. In kind it is functional, cell-based. Conditions: KM3, 72 h.

Chain of Bcl-2-like protein 1 (Homo sapiens) (Q07817 whole entry, the tested form may be a part, canonical isoform): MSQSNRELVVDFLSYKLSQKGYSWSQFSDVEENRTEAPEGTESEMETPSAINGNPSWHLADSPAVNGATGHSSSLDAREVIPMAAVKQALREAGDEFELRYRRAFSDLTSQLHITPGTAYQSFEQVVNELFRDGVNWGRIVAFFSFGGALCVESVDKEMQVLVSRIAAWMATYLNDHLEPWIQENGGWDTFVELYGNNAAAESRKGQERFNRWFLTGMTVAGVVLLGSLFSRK

A word on the Ki: it is the dissociation constant of the complex between target and ligand, obtained from inhibition or displacement. Lower therefore signals tighter binding. `Cc1ccc(CC(=O)N[C@@H](Cc2ccc(OCCOc3cccc4ccccc34)cc2)C(=O)NS(=O)(=O)c2ccc(NCCCc3ccccc3)c([N+](=O)[O-])c2)cc1`: the Ki in experiment [1] was determined as 440 nM.
The same measure, in the same setting: the figure for `Cc1cc(OCCOc2ccc(C[C@H](NC(=O)OC(C)(C)C)C(=O)NS(=O)(=O)c3ccc(Cl)c([N+](=O)[O-])c3)cc2)cc(C)c1Cl` is 700 nM; for `Cc1ccc(CC(=O)N[C@@H](Cc2ccc(OCCOc3cccc4ccccc34)cc2)C(=O)NS(=O)(=O)c2ccc(NCc3ccccc3)c([N+](=O)[O-])c2)cc1` it is 760 nM; for `Cc1ccc(CC(=O)N[C@@H](Cc2cc(I)c(OCCOc3cccc4ccccc34)c(I)c2)C(=O)NS(=O)(=O)c2ccc(Cl)c([N+](=O)[O-])c2)cc1` it is 570 nM.
Still for that read-out and setting: as for `Cc1ccc(CC(=O)N[C@@H](Cc2ccc(OCCOc3ccc(Cl)cc3)cc2)C(=O)NS(=O)(=O)c2ccc(Cl)c([N+](=O)[O-])c2)cc1`, the figure is 1600 nM; as for `CC(C)(C)OC(=O)N[C@@H](Cc1cc(Cl)c(OCCOc2cccc3ccccc23)c(Cl)c1)C(=O)NS(=O)(=O)c1ccc(Cl)c([N+](=O)[O-])c1`, 1000 nM.
Still for that read-out and setting: as for `COc1ccc(CC(=O)N[C@@H](Cc2ccc(OCCOc3cccc4ccccc34)cc2)C(=O)NS(=O)(=O)c2ccc(NCCCc3ccccc3)c([N+](=O)[O-])c2)cc1`, the figure is 500 nM; as for `Cc1ccc(CC(=O)N[C@@H](Cc2ccc(OCCOc3cc(C)c(Cl)c(C)c3)cc2)C(=O)NS(=O)(=O)c2ccc(Cl)c([N+](=O)[O-])c2)cc1`, 480 nM; as for `Cc1cc(OCCOc2ccc(C[C@H](NC(=O)OC(C)(C)C)C(=O)NS(=O)(=O)c3ccc(NCCCc4ccccc4)c([N+](=O)[O-])c3)cc2)cc(C)c1Cl`, 450 nM.
Take `O=C(Cc1ccc(Cl)cc1)N[C@@H](Cc1ccc(OCCOc2cccc3ccccc23)cc1)C(=O)NS(=O)(=O)c1ccc(Cl)c([N+](=O)[O-])c1`: in experiment [1], the Ki turned out to be 510 nM.
Compound `Cc1ccc(C(=O)N[C@@H](Cc2ccc(OCCOc3cccc4ccccc34)cc2)C(=O)NS(=O)(=O)c2ccc(Cl)c([N+](=O)[O-])c2)cc1` yielded a Ki in experiment [1] of 710 nM.
Still for that read-out and setting: the figure for `CC(C)(C)OC(=O)N[C@@H](Cc1ccc(OCCOc2ccc(Cl)cc2)cc1)C(=O)NS(=O)(=O)c1ccc(Cl)c([N+](=O)[O-])c1` is 4800 nM; for `Cc1ccc(CC(=O)N[C@@H](Cc2cc(Br)c(OCCOc3cccc4ccccc34)c(Br)c2)C(=O)NS(=O)(=O)c2ccc(Cl)c([N+](=O)[O-])c2)cc1` it is 970 nM; for `Cc1ccc(CC(=O)N[C@@H](Cc2ccc(OCCOc3cccc4ccccc34)cc2)C(=O)NS(=O)(=O)c2ccc(NCCc3ccccc3)c([N+](=O)[O-])c2)cc1` it is 470 nM.
The same measure, in the same setting: as for `CC(C)(C)OC(=O)N[C@@H](Cc1ccc(OCCOc2cccc3ccccc23)cc1)C(=O)NS(=O)(=O)c1ccc(Cl)c([N+](=O)[O-])c1`, the figure is 5000 nM; as for `Cc1cc(OCCCOc2ccc(C[C@H](NC(=O)OC(C)(C)C)C(=O)NS(=O)(=O)c3ccc(Cl)c([N+](=O)[O-])c3)cc2)cc(C)c1Cl`, 660 nM; as for `Cc1ccc(CC(=O)N[C@@H](Cc2ccc(OCCOc3cccc4ccccc34)cc2)C(=O)NS(=O)(=O)c2ccc(Cl)c([N+](=O)[O-])c2)cc1`, 590 nM.
As for `CC(C)(C)OC(=O)N[C@@H](Cc1ccc(OCCOc2ccccc2)cc1)C(=O)NS(=O)(=O)c1ccc(Cl)c([N+](=O)[O-])c1`, the Ki in experiment [1] was more than 15000 nM.
On the same count and under the same terms, the figure for `Cc1ccc(CC(=O)N[C@@H](Cc2ccc(OCCOc3ccccc3)cc2)C(=O)NS(=O)(=O)c2ccc(Cl)c([N+](=O)[O-])c2)cc1` is 8500 nM; for `Cc1ccc(CC(=O)N[C@@H](Cc2cc(Cl)c(OCCOc3cccc4ccccc34)c(Cl)c2)C(=O)NS(=O)(=O)c2ccc(Cl)c([N+](=O)[O-])c2)cc1` it is 720 nM.
As for `Cc1cc(OCCOc2ccc(C[C@H](NC(=O)OC(C)(C)C)C(=O)NS(=O)(=O)c3ccc(NCCOc4ccccc4)c([N+](=O)[O-])c3)cc2)cc(C)c1Cl`, affinity in experiment [1] was put at a Ki of 670 nM.
Still for that read-out and setting: as for `CC(C)(C)OC(=O)N[C@@H](Cc1ccc(OCCOc2cccc3ccccc23)cc1)C(=O)NS(=O)(=O)c1ccc(NCCCc2ccccc2)c([N+](=O)[O-])c1`, the figure is 1100 nM; as for `CC(C)(C)OC(=O)N[C@@H](Cc1cc(I)c(OCCOc2cccc3ccccc23)c(I)c1)C(=O)NS(=O)(=O)c1ccc(Cl)c([N+](=O)[O-])c1`, 1400 nM; as for `Cc1ccc(CC(=O)N[C@@H](Cc2ccc(OCCOc3cc(C)c(Cl)c(C)c3)cc2)C(=O)NS(=O)(=O)c2ccc(NCCOc3ccccc3)c([N+](=O)[O-])c2)cc1`, 340 nM.
Still for that read-out and setting: the figure for `CC(C)(C)OC(=O)N[C@@H](Cc1ccc(OCCOc2cccc3ccccc23)cc1)C(=O)NS(=O)(=O)c1ccc(NCCc2ccccc2)c([N+](=O)[O-])c1` is 420 nM.
What is called IC50 is the concentration at which inhibition is half-maximal. A lower IC50 goes with inhibition by little substance. By inhibition is commonly meant the drop in the measured response relative to a control, in per cent. A lower inhibition goes with a response near the control. As for `Cc1cc(OCCCCOc2ccc(C[C@H](NC(=O)OC(C)(C)C)C(=O)NS(=O)(=O)c3ccc(NCCCc4ccccc4)c([N+](=O)[O-])c3)cc2)cc(C)c1Cl`, the half-maximal inhibitory concentration (IC50) was 9710 nM in experiment [2]; 11000 nM in experiment [3]; 22900 nM in experiment [4]; 19700 nM in experiment [5]; 8610 nM in experiment [6]; 21200 nM in experiment [9]. For the same compound, in [10], the IC50 was 9700 nM. The compound also returned an inhibition in [7] of more than 50%. In addition, the Ki is 260 nM in [1] and 1200 nM in [8].
For the compound `Cc1cc(OCCCCOc2ccc(C[C@H](NC(=O)OC(C)(C)C)C(=O)NS(=O)(=O)c3ccc(Cl)c([N+](=O)[O-])c3)cc2)cc(C)c1Cl`, the Ki in experiment [1] was 710 nM.

Values taken from ChEMBL document CHEMBL4765272, “Design, synthesis and biological evaluation of tyrosine derivatives as Mcl-1 inhibitors” (Eur J Med Chem, 2020).
